Patent publication US20060160837A1, “Rapamycin compounds in the treatment of neurofibromatosis type 1” (The Brigham and Women's Hospital, Inc., priority 2004, published 2006)

Experiments:
[1] = system: S6K1 phosphorylation at T-389 (readout of mTOR activation); assay: S6K1 (T-389) phosphorylation immunoblot in serum-starved Nf1-deficient MEFs; assay type: cell-based, mouse; details: serum-deprived Nf1-null MEFs; pre-treatment 30 min; 20 nM rapamycin, 200 nM wortmannin, U0126
[2] = system: S6K1 phosphorylation in NF1-/- Schwann cells; assay: S6K1 phosphorylation immunoblot in neurofibroma-derived NF1-/- Schwann cells; assay type: cell-based; details: NF1-/- Schwann cells from human cutaneous and plexiform neurofibromas
Protocol: Litter-mate matched MEFs or NIH3T3 cells were plated in serum-free media at a density of 1.0×10^6 cells/10-cm plate. After 18 hours, 200 nM insulin or 6 μM LPA was added. Where indicated, cells were pre-treated with DMSO, 20 nM rapamycin (Calbiochem), 200 nM Wortmannin (Sigma-Aldrich), or indicated concentrations of U0126 (Calbiochem) for 30-min. For amino acid withdrawal studies, cells were washed and media was replaced with D-PBS for the indicated times. Following stimulation, cells were lysed in 1% SDS boiling lysis buffer. Neurofibroma-derived patient matched NF1^+/− and NF1^−/− Schwann cells were isolated and cultured as previously described (Rosenbaum, et al., J. Neurosci. Res. 61:524-532 (2000); Serra, et al., Hum. Mol. Genet. 9:3055-3064 (2000)). Schwann cells were seeded at a concentration of 2.5×10^5 cells/6-cm plate in DMEM containing 0.1% serum without forskolin, insulin or heregulin and lysed as described above. […] Clarified lysates were normalized for protein levels and analyzed by Western blotting with the following antibodies: Phospho-p70S6K(T-389), Phospho-Tuberin (S-939), Phospho-Tuberin (T-1462), Phospho-Akt(S-473), Phospho-p44/42 Erk (T-202/Y-204) (Cell Signaling Technologies), Tuberin (C-20) (Santa Cruz Biotechnology), Protein Kinase Bα/AKT1, Actin, β-Tubulin (Sigma-Aldrich) and avian p90RSK1. […]

[3] = system: tuberin phosphorylation at S-1798; assay: Phosphorylation of immunoprecipitated tuberin at S-1798 in serum-starved Nf1-deficient MEFs; assay type: cell-based, mouse
[4] = system: tuberin phosphorylation at T-1462 and S-939; assay: Tuberin phosphorylation at T-1462 and S-939, immunoblot in serum-starved Nf1-deficient cells; assay type: cell-based, mouse; details: 200 nM wortmannin or U0126
[5] = system: MPNST cell lines from NF1 patients; assay: MPNST proliferation studies (live cell count, trypan blue exclusion); assay type: cell-based; details: Homo sapiens, 168 h; two MPNST cell lines from two NF1 patients; 7 days; rapamycin 0.01-100 nM

Structure (SMILES) | aberrant activation (phosphorylation) of S6K1 [1] | S6K1 phosphorylation [2] | tuberin phosphorylation at S-1798 (basophilic RXRXXpS/T site) [3] | tuberin phosphorylation at T-1462 and S-939 [4] | IC50 [5] [nM]
N#CC(=C(/N)Sc1ccccc1N)/C(C#N)=C(\N)Sc1ccccc1N [U0126] | suppressed S6K1 phosphorylation in these cells to a similar extent | blocked | suppressed | no effect | 
CO[C@H]1C[C@@H]2CC[C@@H](C)[C@@](O)(O2)C(=O)C(=O)N2CCCC[C@H]2C(=O)O[C@H]([C@H](C)C[C@@H]2CC[C@@H](O)[C@H](OC)C2)CC(=O)[C@H](C)/C=C(\C)[C@@H](O)[C@@H](OC)C(=O)[C@H](C)C[C@H](C)/C=C/C=C/C=C/1C [rapamycin] |  |  |  |  | 1 to 10
